In brackets after ≈: the same amount, converted by molar mass.
Key:
[1] = Measurement of solubility in physiological saline; assay type: physicochemical; conditions: stirred 2 hours, filtered, HPLC
Procedure: The solubility of exemplary compounds of the present invention was measured.
The measurement was carried out using an internal standard method, and a 4-point calibration curve (4000 μM, 1000 μM, 250 μM, and 31.3 μM, or 1000 μM, 250 μM, 62.5 μM, and 7.8 μM) was prepared. A sample solution (100% DMSO) was lyophilized, and each solution was added. Then, the mixture was stirred for 2 hours, and the sample dissolved in the solution was filtered. Thereafter, the filtrate was measured by HPLC (HPLC). Physiological saline was used as a solution. Note that among the test compounds used, comparative compound 1 was the compound of Example 3-26 described in International publication No. WO06/090743 (phosphoric acid dibenzyl ester(R)-2-oxo-3-[1-oxo-3-(2-trifluoromethylphenyl)-1,2-dihydroisoquinolin-7-yl]-oxazolidin-5-ylmethyl ester). Further, the optical isomer of comparative compound 1, i.e., phosphoric acid dibenzyl ester(S)-2-oxo-3-[1-oxo-3-(2-trifluoromethylphenyl)-1,2-dihydroisoquinolin-7-yl]-oxazolidin-5-ylmethyl ester, was used as comparative compound 2. An active substance of the compound of the present invention, i.e., 7-((S)-5-hydroxymethyl-2-oxooxazolidin-3-yl)-3-(2-trifluoromethylphenyl)-2H-isoquinolin-1-one, was used as comparative compound 3. Another active substance of the compound of the present invention, i.e., 7-((R)-5-hydroxymethyl-2-oxooxazolidin-3-yl)-3-(2-trifluoromethylphenyl)-2H-isoquinolin-1-one, was used as comparative compound 4.

[2] = Measurement of conversion rate in human plasma; assay type: in vitro ADME; conditions: 37° C., 50 μM
Procedure: The conversion rate of exemplary compounds of the present invention in human plasma was measured. The measurement of conversion rate in human plasma was conducted using human plasma purchased from Rockland Immunochemicals, Inc. (Pennsylvania, the United States of America). Each compound was incubated at 37° C. for 6 hours in plasma at a concentration of 50 μM, subjected to deproteinization treatment, and then quantified by HPLC using an internal standard method. The conversion rate was calculated as a residual rate after 6 hours. Comparative compounds 1 and 2 described above were also tested as test compounds.

[3] = tested on: human colon cancer cell line HCT116; experiment: Measurement of antitumor effect in HCT116 tumor-bearing nude mice; assay type: in vivo, BALB/c nude mouse; conditions: tail vein, administered twice (day 0 and day 7), HCT116 subcutaneous xenograft, vs control group 14 days after start
Procedure: The antitumor effect of exemplary compounds of the present invention was measured.
The antitumor effect was determined using tumor-bearing mice prepared by subcutaneously implanting a human colon cancer cell line HCT116 obtained from American Type Culture Collection (Virginia, the United States of America) into flank of each BALB/c nude mouse purchased from Charles River, Japan. The purchased nude mice were quarantined for 1 week, and thereafter about 5×10^6 HCT116 cells were subcutaneously implanted into flank of each mouse. The mice were subjected to the experiment at the time when their tumor grew to a size of about 200 mm^3.
Each compound was dissolved in an administration solution, and the solution was administered to the tail vein at 0.1 mL per 10 g of body weight of each mouse. Administration was carried out twice in total; on the initiation day of administration and 7 days after the initiation day. The antitumor effect was calculated as tumor growth inhibition by comparing with tumor growth in the administration solution-administered control group 14 days after the initiation day of administration.

[4] = saline or isotonic, thermodynamic from solid

SMILES: O=C1O[C@@H](COP(=O)(OCc2ccccc2)OCc2ccccc2)CN1c1ccc2cc(-c3ccccc3C(F)(F)F)[nH]c(=O)c2c1 [Comparative compound 1, phosphoric acid dibenzyl ester(R)-2-oxo-3-[1-oxo-3-(2-trifluoromethylphenyl)-1,2-dihydroisoquinolin-7-yl]-oxazolidin-5-ylmethyl ester, reference compound]
- solubility at 2 h [1, 4]: < 7.8 µM
- Residual rate (after 6 hrs., %) [2]: 99.5%
- remained in human plasma after 6 hours (in words) [2]: almost all

SMILES: O=C1O[C@H](COP(=O)([O-])[O-])CN1c1ccc2cc(-c3ccccc3C(F)(F)F)[nH]c(=O)c2c1.[Na+].[Na+] [Example 2, Mono-{(S)-2-oxo-3-[1-oxo-3-(2-trifluoromethyl-phenyl)-1,2-dihydro-isoquinolin-7-yl]-oxazolidin-5-ylmethyl}-disodium phosphate]
- TGI on day 14 (%) ([3]; 60 mg/kg): 85%
- solubility at 2 h [1]: 3527 µM
- Residual rate (after 6 hrs., %) [2]: 29.4%
- remained in human plasma after 6 hours (in words) [2]: almost all

SMILES: O=C1O[C@H](COP(=O)(O)O)CN1c1ccc2cc(-c3ccccc3C(F)(F)F)[nH]c(=O)c2c1 [Example 1, Mono-{(S)-2-oxo-3-[1-oxo-3-(2-trifluoromethyl-phenyl)-1,2-dihydro-isoquinolin-7-yl]-oxazolidin-5-ylmethyl}-phosphoric acid]
- solubility at 2 h [1, 4]: 3530 µM (≈ 1710 µg/mL)
- Residual rate (after 6 hrs., %) [2]: 35.4%

SMILES: O=C1O[C@@H](COP(=O)(O)O)CN1c1ccc2cc(-c3ccccc3C(F)(F)F)[nH]c(=O)c2c1 [Example 6, Mono-{(R)-2-oxo-3-[1-oxo-3-(2-trifluoromethyl-phenyl)-1,2-dihydro-isoquinolin-7-yl]-oxazolidin-5-ylmethyl}-phosphoric acid]
- solubility at 2 h [1, 4]: > 4000 µM

SMILES: O=C1O[C@@H](CO)CN1c1ccc2cc(-c3ccccc3C(F)(F)F)[nH]c(=O)c2c1 [Comparative compound 4, 7-((R)-5-hydroxymethyl-2-oxooxazolidin-3-yl)-3-(2-trifluoromethylphenyl)-2H-isoquinolin-1-one]
- solubility at 2 h [1, 4]: 193 µM (≈ 78 µg/mL)

SMILES: O=C1O[C@@H](COP(=O)(O)O)CN1c1ccc2cc(-c3ccccc3C(F)(F)F)[nH]c(=O)c2c1 [Example 7, Mono-{(R)-2-oxo-3-[1-oxo-3-(2-trifluoromethyl-phenyl)-1,2-dihydro-isoquinolin-7-yl]-oxazolidin-5-ylmethyl}-disodium phosphate]
- TGI on day 14 (%) ([3]; 80 mg/kg): 30%
- Residual rate (after 6 hrs., %) [2]: 33.4%

SMILES: O=C1O[C@H](CO)CN1c1ccc2cc(-c3ccccc3C(F)(F)F)[nH]c(=O)c2c1 [Comparative compound 3, 7-((S)-5-hydroxymethyl-2-oxooxazolidin-3-yl)-3-(2-trifluoromethylphenyl)-2H-isoquinolin-1-one]
- solubility at 2 h [1, 4]: 179 µM (≈ 72.4 µg/mL)

SMILES: O=C1O[C@H](COP(=O)(OCc2ccccc2)OCc2ccccc2)CN1c1ccc2cc(-c3ccccc3C(F)(F)F)[nH]c(=O)c2c1 [Comparative compound 2, phosphoric acid dibenzyl ester(S)-2-oxo-3-[1-oxo-3-(2-trifluoromethylphenyl)-1,2-dihydroisoquinolin-7-yl]-oxazolidin-5-ylmethyl ester, reference compound]
- solubility at 2 h [1, 4]: < 7.8 µM
- Residual rate (after 6 hrs., %) [2]: 95.5%

— US8420668B2, “1-(2H)-isoquinolone derivative” (Chugai Seiyaku Kabushiki Kaisha, priority 2008, dated 2013)
